According to patent publication US20220127297A1, “Novel Antibacterial 3"-Derivatives Of 4,6-Disubstituted 2,5-Dideoxystreptamine Aminoglycoside Antibiotics” (AGILeBiotics B.V., priority 2018, published 2022):
Values after ≈ are worked out from the molar mass of the structure shown.

Each compound was assayed on A. baumannii DSM 105126 (assay: MIC 50, broth micro-dilution, DSM strains). Settings: not given.
Format: cell-based, Acinetobacter baumannii
Text: 3.2 Against Selected Bacteria of the ESKAPE Panel and Enterococcus faecalis (DSM Strains)
Tested reference compounds. Amikacin sulfate (Cat. No. 01693, Chem-Impex), Gentamicin sulfate (Cat. No. G4918, Sigma Aldrich).
Microbial strains. Enterococcus faecalis DSM 2570, Klebsiella pneumoniae DSM 26371, Acinetobacter baumannii DSM 105126, Enterobacter cloacae 3MRGN (clinical bronchial aspirate isolate).
Culture media and equipment. BBL™ Mueller Hinton Broth 2 (Lot. BCBW1143, Cat. No. 70192, Sigma); Trypcase Soy Blood-agar plates (Cat. No. 43001, Biomérieux); Cryoinstant (contains 15% glycerol; Cat. No. 822070ZA, VWR International); GasPak™ EZ Standard Incubation Container (Cat. No. 260671, Becton Dickinson); GasPak™ EZ Campy Container System Sachets (Cat. No. 260680, Becton Dickinson); 96-well deep well plate, 1 mL (Cat. No. 0030506.200, Eppendorf); Plate lid (Cat. No. 0030131.525, Eppendorf); 96-well plate, F-bottom (Cat. No. 260860, Nunc); Incubator (Sartorius Certomat BS-1); Laminar flow (Heraeus HS12); UV/VIS meter (Perkin Elmer Lambda Bio+); Platereader (Tecan Infinite M200 Pro).
Compound preparation. Compounds were prepared in MH2 media at a concentration of 5 mM and stored at 4° C. For testing, solutions of 128 μM were prepared in MH2, for tests against E. faecalis a solution of 512 μM was prepared. Out of these working solutions, 400 μL was transferred to wells in the first column of 96-well deep well plates. Each compound was transferred in triplicate. Plates were previously filled with 200 μL of MH2 media in all wells except for the wells in the first column. After compound and antibiotic addition, the compounds were serial two-fold diluted by transferring 200 μL from the first to the second column, then from the second to the third column and so on. Finally, 200 μL was removed from the last column.
Inoculum preparation. Microorganisms used were all revived from 15% glycerol storage in Croinstant tubes at −28° C. by plating them on blood agar plates. A. baumanni, and E. cloacae were grown aerobically at 37° C., E. faecalis was grown microaerophilically at 37° C., and K. pneumoniae was grown aerobically at 37° C. Plates were stored at 4° C. for up to two weeks, after which new plates were prepared from −28° C. A single colony was inoculated in MH2 media and grown at 37° C. and 200 rpm to an optical density (measured by UV/Vis spectroscopy) of 0.6-0.8 at 600 nm. Out of these suspensions, actual inoculums were prepared by diluting them to an optical density of 0.1 in MH2 media. From these inoculums, 200 μL was transferred to each well, resulting in a final compound concentration range of 64 μM-31.3 nM for, K. pneumoniae, A. baumanni, and E. cloacae, and 256 μM-125 nM for E. faecalis. Plates inoculated with E. faecalis were placed inside a GasPak™ Container System with GasPak™ Campy Container System sachets. All plates were incubated at 200 rpm for 18 h under the microorganism culturing conditions mentioned above.
MIC determination. After 18 h of growth, 200 μL was transferred to a 96-well F-bottom plate. The optical density was determined by a plate reader at 600 nm, with 10 s shaking before reading. Triplicate measurements were averaged, and a growth curve was plotted in Excel. The first column in which the growth reached half the value of maximum growth was determined as the MIC50 value for that particular compound.
MIC50. The MIC50 of a compound was assigned at which the bacterial growth reached half the value of maximum growth.
With `NCCC(O)C(=O)NC1CC(N)C(OC2OC(CN)C(O)C(O)C2N)C(O)C1OC1OC(CO)C(O)C(N)C1O` (stereo not shown) [ABX4001, KanaB-AHB] the “MIC50” value was 0.5 µM (≈ 0.292 µg/mL). For `N=C(N)NC1[C@@H](O)C(OC2[C@@H](O)[C@H](O[C@H]3OC(CN)[C@@H](O)CC3N)C(N)C[C@H]2NC(=O)[C@@H](O)CCN)O[C@H](CO)[C@H]1O` (stereo partly shown) [ABX5005, Tobra-AHB-Gua], the “MIC50” value was 0.25 µM (≈ 0.153 µg/mL). With `NCC[C@H](O)C(=O)N[C@@H]1CC(N)[C@@H](O[C@H]2OC(CN)[C@@H](O)[C@@H](O)C2N)[C@H](O)C1OC1O[C@H](CO)[C@@H](O)C(N)[C@H]1O` (stereo partly drawn) [ABX4002, 3′Epi-KanaB-AHB] the “MIC50” value was 0.5 µM (≈ 0.292 µg/mL). `N=C(N)N[C@@H]1[C@@H](O)[C@@H](O[C@@H]2[C@@H](O)[C@H](O[C@H]3O[C@H](CN)[C@@H](O)[C@@H](O)[C@H]3N)[C@@H](N)C[C@H]2NC(=O)[C@@H](O)CCN)O[C@H](CO)[C@H]1O` [ABX4005, 3′Epi-KanaB-AHB-Gua] was tested, and the “MIC50” value was 0.5 µM (≈ 0.313 µg/mL). `N=C(N)NC1[C@@H](O)C(OC2[C@@H](F)[C@H](O[C@H]3OC(CN)[C@@H](O)[C@H](O)C3N)C(N)C[C@H]2NC(=O)[C@@H](O)CCN)O[C@H](CO)[C@H]1O` (stereo partly drawn) [ABX4004, 3′epi-KanaB-AHB-F-Gua] was tested, and the “MIC50” value was 0.125 µM (≈ 0.0786 µg/mL). For `N=C(N)NC1[C@@H](O)C(OC2[C@@H](O)[C@H](O[C@H]3OC(CN)[C@@H](O)[C@H](O)C3N)C(N)C[C@H]2NC(=O)[C@@H](O)CCN)O[C@H](CO)[C@H]1O` (stereo partly shown) [ABX4009, KanaB-AHB-Gua], the “MIC50” value was 0.5 µM (≈ 0.313 µg/mL). With `NCC[C@H](O)C(=O)N[C@@H]1CC(N)[C@@H](O[C@H]2OC(CN)[C@@H](O)CC2N)[C@H](F)C1OC1O[C@H](CO)[C@@H](O)C(N)[C@H]1O` (stereo partly shown) [ABX5024, Tobra-AHB-F] the “MIC50” value was 0.125 µM (≈ 0.0713 µg/mL). `NCC[C@H](O)C(=O)N[C@@H]1CC(N)[C@@H](O[C@H]2OC(CN)[C@@H](O)[C@@H](O)C2N)[C@H](F)C1OC1O[C@H](CO)[C@@H](O)C(N)[C@H]1O` (stereo partly drawn) [ABX4003, 3′Epi-KanaB-AHB-F] was tested, and the “MIC50” value was 0.5 µM (≈ 0.293 µg/mL). For `NCCC(O)C(=O)NC1CC(N)C(OC2OC(CN)C(O)C(O)C2O)C(F)C1OC1OC(CO)C(O)C(N)C1O` (stereo not drawn) [ABX3005, 3′Epi-KanaA-AHB-F], the “MIC50” value was 1 µM (≈ 0.588 µg/mL). With `NCC[C@H](O)C(=O)N[C@@H]1C[C@H](N)[C@@H](O[C@H]2O[C@H](CN)[C@@H](O)[C@@H](O)[C@H]2O)[C@H](O)[C@H]1O[C@H]1O[C@H](CO)[C@@H](O)[C@H](N)[C@H]1O` [ABX3002, 3′Epi-KanaA-AHB] the “MIC50” value was 2 µM (≈ 1.17 µg/mL).

Same assay, conditions: Acinetobacter baumannii, DSM105126, read-out: MIC 50
Work on `N=C(NCCN)NC1C(O)[C@@H](CO)OC(OC2C(F)[C@H](O[C@H]3OC(CN)[C@@H](O)CC3N)C(N)C[C@H]2NC(=O)[C@@H](O)CCN)[C@@H]1O` (stereo partly shown) [ABX5020, Tobra-AHB-F-Gua-2-amino-ethyl] yielded an MIC50 of 0.0625 to 0.125 µM (≈ 0.041 to 0.082 µg/mL). `N=C(NC[C@@H]1CCNC1)NC1[C@@H](O)C(OC2[C@@H](F)[C@H](O[C@H]3OC(CN)[C@@H](O)CC3N)C(N)C[C@H]2NC(=O)[C@@H](O)CCN)O[C@H](CO)[C@H]1O` (stereo partly drawn) [ABX5039, Tobra-AHB-F-Gua (R) pyrrolidine-3-ylmethyl] gave an MIC50 of 0.0625 µM (≈ 0.0435 µg/mL). `N=C(NCCO)NC1[C@@H](O)C(OC2[C@@H](F)[C@H](O[C@H]3OC(CN)[C@@H](O)CC3N)C(N)C[C@H]2NC(=O)[C@@H](O)CCN)O[C@H](CO)[C@H]1O` (stereo partly shown) [ABX5029, Tobra-AHB-F-Gua 2-hydroxy-ethyl] gave an MIC50 of 0.0625 µM (≈ 0.041 µg/mL). `N=C(NCCCO)NC1[C@@H](O)C(OC2[C@@H](F)[C@H](O[C@H]3OC(CN)[C@@H](O)CC3N)C(N)C[C@H]2NC(=O)[C@@H](O)CCN)O[C@H](CO)[C@H]1O` (stereo partly shown) [ABX5041, Tobra-AHB-F-Gua 3-hydroxy-propyl] showed an MIC50 of 0.25 µM (≈ 0.168 µg/mL). In the case of `N=C(N)NC1[C@@H](O)C(OC2[C@@H](F)[C@H](O[C@H]3OC(CN)[C@@H](O)[C@H](O)C3N)C(N)C[C@H]2NC(=O)[C@@H](O)CCN)O[C@H](CO)[C@H]1O` (stereo partly shown) [ABX4006, KanaB-AHB-F-Gua], the MIC50 is reported as 0.125 µM (≈ 0.0786 µg/mL). For `N=C(NCC1CC1)NC1[C@@H](O)C(OC2[C@@H](F)[C@H](O[C@H]3OC(CN)[C@@H](O)CC3N)C(N)C[C@H]2NC(=O)[C@@H](O)CCN)O[C@H](CO)[C@H]1O` (stereo partly shown) [ABX5027, Tobra-AHB-F-Gua cyclopropylmethyl], the MIC50 was 0.125 µM (≈ 0.0833 µg/mL). `N=C(NC[C@@H]1CNCCO1)NC1[C@@H](O)C(OC2[C@@H](F)[C@H](O[C@H]3OC(CN)[C@@H](O)CC3N)C(N)C[C@H]2NC(=O)[C@@H](O)CCN)O[C@H](CO)[C@H]1O` (stereo partly drawn) [ABX5040, Tobra-AHB-F-Gua (S) morpholin-2-yl methyl] showed an MIC50 of 0.0625 to 0.125 µM (≈ 0.0445 to 0.089 µg/mL). For `C[C@@H](N)CCNC(=N)NC1[C@@H](O)C(OC2[C@@H](F)[C@H](O[C@H]3OC(CN)[C@@H](O)CC3N)C(N)C[C@H]2NC(=O)[C@@H](O)CCN)O[C@H](CO)[C@H]1O` (stereo partly drawn) [ABX5047, Tobra-AHB-F-Gua (R) 3-amino-butyl], the MIC50 was 0.125 µM (≈ 0.0855 µg/mL). `N=C(NC[C@H]1CCNC1)NC1[C@@H](O)C(OC2[C@@H](F)[C@H](O[C@H]3OC(CN)[C@@H](O)CC3N)C(N)C[C@H]2NC(=O)[C@@H](O)CCN)O[C@H](CO)[C@H]1O` (stereo partly drawn) [ABX5042, Tobra-AHB-F-Gua (S) pyrrolidine-3-ylmethyl] gave an MIC50 of 0.0625 µM (≈ 0.0435 µg/mL). `N=C(NC[C@H]1CNCCO1)NC1[C@@H](O)C(OC2[C@@H](F)[C@H](O[C@H]3OC(CN)[C@@H](O)CC3N)C(N)C[C@H]2NC(=O)[C@@H](O)CCN)O[C@H](CO)[C@H]1O` (stereo partly drawn) [ABX5043, Tobra-AHB-F-Gua (R) morpholin-2-yl methyl] gave an MIC50 of 0.0625 to 0.125 µM (≈ 0.0445 to 0.089 µg/mL). `N=C(N)NC1C(O)[C@@H](CO)OC(OC2C(F)[C@H](O[C@H]3OC(CN)[C@@H](O)CC3N)C(N)C[C@H]2NC(=O)[C@@H](O)CCN)[C@@H]1O` (stereo partly shown) [ABX5006, Tobra-AHB-F-Gua] was tested, and the MIC50 was 0.0625 µM (≈ 0.0383 µg/mL). In the case of `CC(C)(C)CCNC(=N)NC1[C@@H](O)C(OC2[C@@H](F)[C@H](O[C@H]3OC(CN)[C@@H](O)CC3N)C(N)C[C@H]2NC(=O)[C@@H](O)CCN)O[C@H](CO)[C@H]1O` (stereo partly shown) [ABX5025, Tobra-AHB-F-Gua 2-tBu-ethyl], the MIC50 is reported as 0.25 µM (≈ 0.174 µg/mL). In the case of `N=C(NCC1CCCO1)NC1[C@@H](O)C(OC2[C@@H](F)[C@H](O[C@H]3OC(CN)[C@@H](O)CC3N)C(N)C[C@H]2NC(=O)[C@@H](O)CCN)O[C@H](CO)[C@H]1O` (stereo partly shown) [ABX5046, Tobra-AHB-F-Gua tetrahydrofuran-2-yl methyl], the MIC50 is reported as 0.25 µM (≈ 0.174 µg/mL). `N=C(NC[C@@H]1CCCN1)NC1[C@@H](O)C(OC2[C@@H](F)[C@H](O[C@H]3OC(CN)[C@@H](O)CC3N)C(N)C[C@H]2NC(=O)[C@@H](O)CCN)O[C@H](CO)[C@H]1O` (stereo partly drawn) [ABX5026, Tobra-AHB-F-Gua (S) pyrrolidine-2-yl-methyl] showed an MIC50 of 0.0312 to 0.0625 µM (≈ 0.0217 to 0.0435 µg/mL). For `N=C(NCCCN)NC1[C@@H](O)C(OC2[C@@H](F)[C@H](O[C@H]3OC(CN)[C@@H](O)CC3N)C(N)C[C@H]2NC(=O)[C@@H](O)CCN)O[C@H](CO)[C@H]1O` (stereo partly shown) [ABX5030, Tobra-AHB-F-Gua-3-amino-propyl], the MIC50 was 0.0312 to 0.0625 µM (≈ 0.0209 to 0.0419 µg/mL). Work on `N=C(NCC1CCOC1)NC1[C@@H](O)C(OC2[C@@H](F)[C@H](O[C@H]3OC(CN)[C@@H](O)CC3N)C(N)C[C@H]2NC(=O)[C@@H](O)CCN)O[C@H](CO)[C@H]1O` (stereo partly shown) [ABX5051, Tobra-AHB-F-Gua tetrahydrofuran-3-yl methyl] yielded an MIC50 of 0.5 µM (≈ 0.348 µg/mL). `CNCCNC(=N)NC1[C@@H](O)C(OC2[C@@H](F)[C@H](O[C@H]3OC(CN)[C@@H](O)CC3N)C(N)C[C@H]2NC(=O)[C@@H](O)CCN)O[C@H](CO)[C@H]1O` (stereo partly shown) [ABX5038, Tobra-AHB-F-Gua 2-(methylamino)ethyl] gave an MIC50 of 0.0625 to 0.125 µM (≈ 0.0419 to 0.0837 µg/mL). In the case of `N=C(NCc1cnc[nH]1)NC1[C@@H](O)C(OC2[C@@H](F)[C@H](O[C@H]3OC(CN)[C@@H](O)CC3N)C(N)C[C@H]2NC(=O)[C@@H](O)CCN)O[C@H](CO)[C@H]1O` (stereo partly shown) [ABX5050, Tobra-AHB-F-Gua imidazol-5-yl methyl], the MIC50 is reported as 0.5 µM (≈ 0.346 µg/mL).
